Among the test systems are MCF7 breast; HT29 colon; COLO 205 colon; M14 melanoma; LOX IMVI melanoma; NCI-H460 lung; EKVX NSCLC; HCC-2998 colon; CAKI-1 renal; MALME-3M melanoma.
Experiment in all cases: NCI-60 cell line screen, 48 h

“And” between values parts separate entries of the source, which are not always exact repeats. Equal entries are not always repeated.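 Five concentrations, 48 hours, 96-well plates. Here, GI50 denotes the concentration required for 50% inhibition of growth. TGI: concentration producing complete growth inhibition.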 A value given as a limit tells only on which side of the number the result lay.

Consider `CCOC(=O)c1c(-c2ccc(OC)c(O)c2)c(C#N)c(=S)n(C2OC(COC(C)=O)C(OC(C)=O)C(OC(C)=O)C2OC(C)=O)c1-c1ccccc1` (configuration not stated), for which the GI50 in the assay with MCF7 breast was 28.2 µM and > 100 µM; in the assay with HT29 colon, 36.7 µM and > 100 µM; in the assay on COLO 205 colon, 27.9 µM and > 100 µM; in the assay on M14 melanoma, 18.9 µM and > 100 µM; with LOX IMVI melanoma it was 34.8 µM and > 100 µM; in the assay on EKVX NSCLC, 45.4 µM and > 100 µM. Besides, the GI50 in the assay with HCC-2998 colon was 31.8 µM and > 100 µM; in the assay with CAKI-1 renal it was 34.5 µM and > 100 µM. The TGI in the assay on MCF7 breast was above 100 µM; in the assay with HT29 colon it was above 100 µM; with COLO 205 colon, above 100 µM; with M14 melanoma, 40.6 µM and > 100 µM; in the assay with LOX IMVI melanoma, above 100 µM; in the assay on NCI-H460 lung, above 100 µM. Besides, the TGI is above 100 µM in the assay on EKVX NSCLC, above 100 µM in the assay on HCC-2998 colon, above 100 µM in the assay on CAKI-1 renal and 57 µM in the assay on MALME-3M melanoma.
For the compound `C/C(CC(C)(C)N1CC1)=N\NC(=O)Nc1cccc2ccccc12`, the GI50 with MCF7 breast is 2.42 µM; in the assay on HT29 colon it was 3.5 µM; with COLO 205 colon, 2.39 µM; in the assay with M14 melanoma, 4.25 µM; with LOX IMVI melanoma, 3.13 µM; in the assay with NCI-H460 lung, 2.86 µM. Moreover, the GI50 with EKVX NSCLC was 5.84 µM; in the assay with HCC-2998 colon it was 4.81 µM; with CAKI-1 renal, 3.73 µM; in the assay with MALME-3M melanoma it was 4.08 µM. Also, the TGI in the assay on MCF7 breast came to 11.2 µM; in the assay with HT29 colon it was 13.7 µM; in the assay with COLO 205 colon, 7.19 µM; in the assay on M14 melanoma it was 15.2 µM; with LOX IMVI melanoma it was 13.3 µM; in the assay with NCI-H460 lung it was 10 µM. Moreover, the TGI amounted to 19.9 µM with EKVX NSCLC, 17 µM with HCC-2998 colon, 13.2 µM in the assay with CAKI-1 renal and 18.8 µM in the assay with MALME-3M melanoma.
As for `O=C(Nc1n[nH]c2nc(-c3ccc(O)cc3)c(Br)cc12)C1CC1`, the GI50 was 1.05 µM in the assay with MCF7 breast; 2.04 µM with HT29 colon; 3.18 µM in the assay on COLO 205 colon; 3.97 µM in the assay on M14 melanoma; 1.75 µM in the assay with LOX IMVI melanoma; 1.89 µM in the assay with NCI-H460 lung. For the same compound, the GI50 was 6.34 µM with EKVX NSCLC, 4.76 µM with HCC-2998 colon, 3.11 µM in the assay with CAKI-1 renal and 4.62 µM in the assay on MALME-3M melanoma. The TGI with MCF7 breast was 10.2 µM; in the assay on HT29 colon, 13.8 µM; in the assay on COLO 205 colon, 8.76 µM; in the assay with M14 melanoma, 11.3 µM; with LOX IMVI melanoma, 13.1 µM; in the assay on NCI-H460 lung, above 20.1 µM. Further, the TGI is 19 µM in the assay with EKVX NSCLC, above 20.3 µM with HCC-2998 colon, 16.5 µM in the assay with CAKI-1 renal and 12.5 µM with MALME-3M melanoma.
`CC1(C)N=c2cc3c(cc2N1c1ccc(Cl)cc1)=Nc1ccccc1N3c1ccc(Cl)cc1`: the GI50 with MCF7 breast was 2.41 µM; with HT29 colon, 7.85 µM; with COLO 205 colon, 4.66 µM; in the assay on M14 melanoma, 9.32 µM; with LOX IMVI melanoma, 5.44 µM; with NCI-H460 lung, 4.78 µM. The GI50 was 5.31 µM with EKVX NSCLC, 17.8 µM in the assay on HCC-2998 colon, 18.2 µM with CAKI-1 renal and 4.79 µM in the assay with MALME-3M melanoma. Besides, the TGI in the assay on MCF7 breast was 23.4 µM; with HT29 colon, above 100 µM; in the assay with COLO 205 colon it was 21.8 µM; with M14 melanoma, above 100 µM; in the assay with LOX IMVI melanoma, 24.8 µM; in the assay with NCI-H460 lung, above 100 µM. In addition, the TGI with EKVX NSCLC, in the assay with HCC-2998 colon, in the assay on CAKI-1 renal and with MALME-3M melanoma was above 100 µM in each case.
With `C#Cc1cccc(NC(=O)c2cccc(NC(=O)CCl)c2)c1`, the GI50 in the assay on MCF7 breast was 12.8 µM; in the assay with HT29 colon, 8.18 µM; in the assay with COLO 205 colon it was 22 µM; in the assay on M14 melanoma, 32.2 µM; in the assay on LOX IMVI melanoma it was 8.87 µM; in the assay on NCI-H460 lung it was 5.49 µM. Moreover, the GI50 was 27.2 µM in the assay with EKVX NSCLC, 29.8 µM with HCC-2998 colon, 31.5 µM in the assay on CAKI-1 renal and 15.7 µM in the assay with MALME-3M melanoma. The TGI with MCF7 breast is above 82.5 µM; in the assay on HT29 colon, 33.4 µM; with COLO 205 colon, above 82.5 µM; with M14 melanoma, above 82.5 µM; with LOX IMVI melanoma, 21.7 µM; in the assay on NCI-H460 lung it was 20 µM. The TGI with EKVX NSCLC was above 82.5 µM; in the assay with HCC-2998 colon, above 82.5 µM; in the assay with CAKI-1 renal, above 82.5 µM; in the assay on MALME-3M melanoma, 41.5 µM.
Turning to `COC(=O)C1=C(C(=O)ON)[C@@H]2C=C[C@@]1([C@@H](Cc1ccccc1)Nc1ccccc1)O2`, the GI50 in the assay with MCF7 breast is 2.34 µM; in the assay with HT29 colon it was 1.89 µM; in the assay on COLO 205 colon, 1.77 µM; in the assay on M14 melanoma, 1.87 µM; in the assay with LOX IMVI melanoma, 1.5 µM; in the assay with NCI-H460 lung it was 16.6 µM. The GI50 is 1.83 µM in the assay on EKVX NSCLC, 17.2 µM with HCC-2998 colon, 1.61 µM in the assay on CAKI-1 renal and 1.69 µM with MALME-3M melanoma. Besides, the TGI came to 8.12 µM in the assay with MCF7 breast; 3.97 µM in the assay on HT29 colon; 3.57 µM with COLO 205 colon; 3.89 µM in the assay with M14 melanoma; 2.88 µM in the assay with LOX IMVI melanoma; 32.4 µM in the assay on NCI-H460 lung. The TGI in the assay with EKVX NSCLC amounted to 4.16 µM; with HCC-2998 colon, 32.5 µM; with CAKI-1 renal it was 2.96 µM; in the assay on MALME-3M melanoma, 3.2 µM.
As for `COc1ccc(CNCCCN2C(=O)c3ccc4c5c(ccc(c35)C2=O)C(=O)N(CCCNCc2ccc(OC)c(OC)c2OC)C4=O)c(OC)c1OC`, the GI50 was 0.0811 µM with MCF7 breast; 0.0522 µM in the assay with HT29 colon; 0.0524 µM with COLO 205 colon; 0.0855 µM in the assay on M14 melanoma; 0.0795 µM in the assay with LOX IMVI melanoma; 0.121 µM in the assay on NCI-H460 lung. For the same compound, the GI50 with EKVX NSCLC was 0.0929 µM; in the assay on HCC-2998 colon it was 0.0957 µM; in the assay with CAKI-1 renal, 0.671 µM; with MALME-3M melanoma, 0.0765 µM. For the same compound, the TGI in the assay with MCF7 breast is 0.219 µM; in the assay on HT29 colon it was 0.244 µM; with COLO 205 colon, 0.12 µM; in the assay on M14 melanoma, 0.162 µM; in the assay with LOX IMVI melanoma, 0.155 µM; in the assay with NCI-H460 lung, 0.336 µM. The TGI in the assay on EKVX NSCLC stood at 0.176 µM; in the assay on HCC-2998 colon it was 0.187 µM; in the assay with CAKI-1 renal, 1.95 µM; in the assay with MALME-3M melanoma it was 0.151 µM.
On to `COc1ccc(-c2cc(-c3ccc(OC)cc3)nc(NCCCNc3ccnc4cc(Cl)ccc34)n2)cc1`, for which the GI50 in the assay with MCF7 breast was 1.65 µM; with HT29 colon, 1.56 µM; in the assay on COLO 205 colon it was 1.72 µM; in the assay on M14 melanoma, 1.74 µM; with LOX IMVI melanoma, 1.79 µM; in the assay with NCI-H460 lung it was 1.77 µM. Besides, the GI50 in the assay with EKVX NSCLC is 1.67 µM; in the assay on HCC-2998 colon, 1.73 µM; in the assay with CAKI-1 renal, 11.8 µM; in the assay on MALME-3M melanoma it was 1.76 µM. Further, the TGI with MCF7 breast amounted to 3.5 µM; in the assay with HT29 colon it was 3.06 µM; with COLO 205 colon, 3.58 µM; in the assay on M14 melanoma it was 3.28 µM; in the assay on LOX IMVI melanoma, 3.25 µM; with NCI-H460 lung, 3.32 µM. Moreover, the TGI stood at 4.17 µM in the assay on EKVX NSCLC, 3.2 µM in the assay on HCC-2998 colon, 25.8 µM in the assay with CAKI-1 renal and 3.26 µM in the assay on MALME-3M melanoma.
For `CCOC(=O)c1c2c(n3ccc(NC(=O)CCN4CCCCC4)cc13)C(=O)c1ncccc1C2=O`, the GI50 was below 0.01 µM in the assay with MCF7 breast; 1.3 µM with HT29 colon; 1.18 µM in the assay with COLO 205 colon; 0.17 µM in the assay with M14 melanoma; 0.301 µM in the assay on LOX IMVI melanoma; below 0.01 µM in the assay on NCI-H460 lung. The GI50 was 3.03 µM with EKVX NSCLC, 1.53 µM in the assay with HCC-2998 colon, 0.0279 µM with CAKI-1 renal and 1.16 µM in the assay on MALME-3M melanoma. The TGI in the assay with MCF7 breast stood at 1.95 µM; in the assay on HT29 colon it was 3.1 µM; in the assay on COLO 205 colon it was 2.75 µM; in the assay with M14 melanoma it was 1.76 µM; with LOX IMVI melanoma it was 0.777 µM; in the assay on NCI-H460 lung it was 0.443 µM. In addition, the TGI in the assay with EKVX NSCLC turned out to be 8.47 µM; with HCC-2998 colon, 3.24 µM; in the assay on CAKI-1 renal, 4.18 µM; in the assay with MALME-3M melanoma, 2.73 µM.
As for `CN[C@@H](Cc1cccc2ccccc12)C(=O)N[C@@H](CC(C)C)B(O)O`, the GI50 with MCF7 breast is 0.00637 µM; with COLO 205 colon it was 0.0427 µM; in the assay on LOX IMVI melanoma, 0.0135 µM; with NCI-H460 lung, 0.0266 µM; with EKVX NSCLC it was 0.0277 µM; with HCC-2998 colon, 0.0162 µM. Also, the GI50 with MALME-3M melanoma is 0.0121 µM. For the same compound, the TGI was 0.025 µM in the assay on HT29 colon; 0.17 µM in the assay on COLO 205 colon; 0.145 µM in the assay on M14 melanoma; 0.0324 µM in the assay on LOX IMVI melanoma; 0.105 µM and 0.0551 µM in the assay on NCI-H460 lung; 0.209 µM and 0.0476 µM in the assay with EKVX NSCLC. Moreover, the TGI was 0.0298 µM with HCC-2998 colon; 0.0272 µM and < 0.0131 µM with CAKI-1 renal; 0.0336 µM and 0.0214 µM with MALME-3M melanoma.
`COc1ccc2nc3c(cc2c1)C(=O)CC(c1ccccc1)C3` (configuration not stated): the GI50 in the assay on MCF7 breast is 3.54 µM; in the assay on HT29 colon it was 0.439 µM; with COLO 205 colon, 0.732 µM; in the assay with LOX IMVI melanoma, 1.33 µM; in the assay with NCI-H460 lung, 1.44 µM; in the assay on EKVX NSCLC, 5.81 µM. For the same compound, the GI50 in the assay with HCC-2998 colon is 15.9 µM; in the assay with CAKI-1 renal, 0.552 µM; in the assay on MALME-3M melanoma, 0.432 µM. Further, the TGI in the assay with MCF7 breast, with HT29 colon, in the assay on COLO 205 colon, in the assay on LOX IMVI melanoma, with NCI-H460 lung and with EKVX NSCLC was above 100 µM each time. The TGI in the assay on HCC-2998 colon, with CAKI-1 renal and in the assay with MALME-3M melanoma was above 100 µM throughout.

Values taken from PubChem BioAssay (NCI).
